From patent publication US9931324B2, “Indolizine derivatives and their use in neurodegenerative diseases” (Merck Patent GmbH, priority 2014, dated 2018) come the findings set out here.

Assay [1] concerns the target T1, P2X7 (Homo sapiens, UniProt Q99572).
T1 sequence (Q99572 1-595): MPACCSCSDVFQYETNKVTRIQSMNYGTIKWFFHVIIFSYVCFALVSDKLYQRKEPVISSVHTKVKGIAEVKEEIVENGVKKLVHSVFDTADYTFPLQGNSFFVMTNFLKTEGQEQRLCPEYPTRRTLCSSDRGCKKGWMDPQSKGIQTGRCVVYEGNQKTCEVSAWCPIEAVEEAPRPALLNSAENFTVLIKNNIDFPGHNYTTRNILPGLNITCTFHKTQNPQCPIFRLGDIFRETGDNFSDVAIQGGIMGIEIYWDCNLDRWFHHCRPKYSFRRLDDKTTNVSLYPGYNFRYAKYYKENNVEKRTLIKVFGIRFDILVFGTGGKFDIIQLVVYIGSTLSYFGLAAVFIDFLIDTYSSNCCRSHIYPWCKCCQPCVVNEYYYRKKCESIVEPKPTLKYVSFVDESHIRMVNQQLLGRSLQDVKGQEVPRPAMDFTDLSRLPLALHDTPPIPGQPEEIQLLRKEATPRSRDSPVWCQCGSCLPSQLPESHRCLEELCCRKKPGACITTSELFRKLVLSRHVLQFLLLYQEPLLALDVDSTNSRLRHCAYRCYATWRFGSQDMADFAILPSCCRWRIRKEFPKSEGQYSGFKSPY
Put plainly: Pore permeation assay (YO PRO dye uptake, BzATP-induced). Further details: expressed in transfected cells; host or cells: HEK293. Conditions: HEK293 transfected with human P2X7 receptor, BzATP 10 uM, read-out: hP2X7 IC50. Format: cell-based. As for the experimental part:
Agonist-induced pore formation was determined by measuring cellular uptake of YO PRO fluorescence dye in HEK293 transfected with human P2X7 receptor. A HEK293 cell over expressing human P2X7 was harvested using HQTase reagent to detach the cells from T75 cm flask. The harvested cells are centrifuged @1200 rpm for 5 min at room temperature. The viability of cells was determined by Trypan blue dye and the cells are plated @10,000 cell/well in 50 ul volume in a 384W BD Poly lysine coated plate and incubated overnight at 37 C. After overnight incubation, the culture medium was replaced with 35 ul/well assay buffer (5 mM KCl, 0.1 mM CaCl2, 5 mM Glucose, 10 mM HEPES buffer pH7.4 containing 125 mM NaCl. The serial dilution of compounds was performed using Bravo liquid handling instrument and the compounds were added using Bravo to the cell assay plate starting at 2.5 uM with three dilutions for 10 points. The positive control inhibitor compound was added to column 23. The plate was shaken slowly on a plate shaker for 10 seconds. The cells were incubated with the compound for 20 minutes at room temperature. After the incubation period, YO PRO dye (1 uM) along with BzATP (10 uM) were added to cells at 10 ul/well. The plate was centrifuged at 1000 rpm for 5 seconds and incubated at room temperature for 30 minutes. The uptake of YO PRO dye into the cells was measured using Envision Fluorescence plate reader instrument (Perkin Elmer).

The target in assay [2] is T1, P2X7. The assay is described as follows: IL-1β release assay in THP-1 cells (sandwich ELISA, BzATP-stimulated). The assay is classed as cell-based. Further details: endogenous in cells; host or cells: THP-1 cells (PMA-differentiated, LPS-primed). Conditions: LPS primed, 0.8 mM BzATP, mature IL-1β release, read-out: hTHP-1/IL-ib IC50. As for the experimental part: IL-1β release assay: The activation of P2X7 by ATP leads to a fast transient activation of cells resulting in influx of Ca^2+ followed by conversion of pro-IL-1β to active IL-1β. The functional activity of P2X7 compounds was measured by the release of mature IL-1β in the culture medium of THP-1 cells, detected by sandwich ELISA. Cells were maintained in complete growth medium (RPMI 1640+10% HI-FCS+2 mM L-glutamine+1× PS). […] THP-1 cells were harvested from the flask in 50 ml by centrifugation for 3 min at 100 g. The cells were resuspended to 2×10^5 cells/ml in medium supplemented with 0.5 μM PMA and incubated. The cells were washed and resuspended to 1.5×10^5 cells/ml in medium complemented with 10 ng/ml LPS, and the cells were primed for 4 h at 37° C., 5% CO2. After addition of 20 μL of prediluted test compounds, blank, standard and control reagents, cells were incubated for a further 20 min at 37° C. and stimulated with 0.8 mM BzATP for 30 minutes. The cells were centrifuged, supernatant was collected and the presence of mature IL-1β was detected using Dual human IL-1b kit following manufacturer's instruction. The tetrahydrobenzodiazepine analogs effectively modulated the activity of P2X7 in the cells as measured by the levels of pro-inflammatory cytokine IL-1β, which is released by the activation of P2X7 receptor.
On the technique in general: In an ELISA, binding on a coated surface is turned into a signal by an enzyme label.

Consider `COCCc1cc(C(=O)NC[C@@]2(O)CCC[C@@H](C)C2)c2c(Cl)cccn12` [Compound 18], for which the IC50 at P2X7 [1] and on P2X7 [2] was 10 to 100 nM each time.

On to `O=C(NCC1CCC(F)(F)CC1)c1cc(C2=CCOC2)n2cccc(Cl)c12` [Compound 21, 8-chloro-N-((4,4-difluorocyclohexyl)methyl)-3-(2,5-dihydrofuran-3-yl) indolizine-1-carboxamide], for which the IC50 at P2X7 [1] and on P2X7 [2] was 101 to 500 nM each time.

Take `COCCc1cc(C(=O)NC[C@@]2(O)CCC[C@@H](C)C2)c2c(C(F)(F)F)cccn12` [Compound 22, 3-(2-Methoxy-ethyl)-8-trifluoromethyl-indolizine-1-carboxylic Acid ((1R,3R)-1-hydroxy-3-methyl-cyclohexylmethyl)-amide]: the IC50 on P2X7 [1] and at P2X7 [2] was 10 to 100 nM each time.

`O=C(NCC1CCC(F)(F)CC1)c1cc(C2CCCO2)n2cccc(Cl)c12` (centres unmarked) [Compound 23, 8-Chloro-3-(tetrahydro-furan-2-yl)-indolizine-1-carboxylic Acid (4,4-difluoro-cyclohexyl methyl)-amide]: the IC50 on P2X7 [1] and at P2X7 [2] was 10 to 100 nM each time.

`COCCc1cc(C(=O)NCC2(O)CCCC3(CC3)C2)c2c(Cl)cccn12` (centres unmarked) [Compound 29, 8-chloro-N-((5-hydroxyspiro[2.5]octan-5-yl)methyl)-3-(2-methoxyethyl) indolizine-1-carboxamide]: the IC50 on P2X7 [1] and at P2X7 [2] was 101 to 500 nM throughout.

In the case of `O=C(NCC1CCC(F)(F)CC1)c1cc(CC2CCOC2)n2cccc(Cl)c12` (centres unmarked) [Compound 30, 8-chloro-N-((4,4-difluorocyclo-hexyl)methyl)-3-((tetrahydrofuran-3-yl)methyl)indolizine-1-carboxamide], the IC50 fell in the range of 10 to 100 nM on P2X7 [1] and 101 to 500 nM at P2X7 [2].

For the compound `COCCc1cc(C(=O)NCC2CCCC(F)(F)C2)c2c(Cl)cccn12` (centres unmarked) [Compound 31, 8-chloro-N-((3,3-difluorocyclohexyl)methyl)-3-(2-methoxyethyl)indolizine-1-carboxamide], the IC50 at P2X7 [1] and on P2X7 [2] was 10 to 100 nM each time.

Regarding `CC1CC(CNC(=O)c2cc(CCO)n3cccc(Cl)c23)CCC1(F)F` (centres unmarked) [Compound 32, 8-chloro-N-((4,4-difluoro-3-methylcyclohexyl)methyl)-3-(2-hydroxyethyl) indolizine-1-carboxamide], the IC50 is less than 10 nM on P2X7 [1] and 10 to 100 nM on P2X7 [2].

Turning to `COCCc1cc(C(=O)NCC2(O)CCCCCC2)c2c(Cl)cccn12` [Compound 35, 8-chloro-N-((1-hydroxycycloheptyl)methyl)-3-(2-methoxyethyl)indolizine-1-carboxamide], the IC50 on P2X7 [1] and on P2X7 [2] was 10 to 100 nM in each case.

For `CC1CC(CNC(=O)c2cc(CCO)n3cccc(Cl)c23)CC(F)(F)C1` (centres unmarked) [Compound 36, 8-chloro-N-((3,3-difluoro-5-methylcyclohexyl)methyl)-3-(2-hydroxyethyl)indolizine-1-carboxamide], the IC50 on P2X7 [1] and at P2X7 [2] was 10 to 100 nM each time.

In the case of `COCCc1cc(C(=O)NCC2CCC(F)(F)CC2)c2c(Cl)cccn12` [Compound 37, 8-chloro-N-((4,4-difluorocyclohexyl)methyl)-3-(2-methoxyethyl) indolizine-1-carboxamide], the IC50 on P2X7 [1] and on P2X7 [2] was 10 to 100 nM in each case.

Regarding `O=C(NCC1CCCC(F)(F)C1)c1cc(C2CCOC2)n2cccc(Cl)c12` (centres unmarked) [Compound 39, 8-Chloro-3-(tetrahydro-furan-3-yl)-indolizine-1-carboxylic Acid (3,3-difluoro-cyclohexyl methyl)-amide], the figures for the IC50 on P2X7 [1] and at P2X7 [2] were 10 to 100 nM and 101 to 500 nM, respectively.

For `O=C(NCC1CCC(F)(F)CC1)c1cc(C2CCOC2)n2cccc(Cl)c12` (centres unmarked) [Compound 40, 8-chloro-N-((4,4-difluorocyclohexyl)methyl)-3-(tetrahydro-furan-3-yl)indolizine-1-carboxamide], the IC50 at P2X7 [1] and on P2X7 [2] was 10 to 100 nM each time.

Regarding `CC1CC(O)(CNC(=O)c2cc(C3CCOCC3)n3cccc(Cl)c23)CCC1(F)F` (centres unmarked) [Compound 41, 8-chloro-N-((4,4-difluoro-1-hydroxy-3-methylcyclohexyl)methyl)-3-(tetrahydro-2H-pyran-4-yl)indolizine-1-carboxamide], the values for the IC50 on P2X7 [1] and on P2X7 [2] were 101 to 500 nM and 10 to 100 nM, respectively.

Turning to `COCCc1cc(C(=O)NCC2(O)CCC(F)(F)C(C)C2)c2c(Cl)cccn12` (centres unmarked) [Compound 43, 8-chloro-N-((4,4-difluoro-1-hydroxy-3-methylcyclohexyl)methyl)-3-(2-methoxyethyl)indolizine-1-carboxamide], the IC50 was in the range of 10 to 100 nM at P2X7 [1] and 101 to 500 nM on P2X7 [2].

Take `O=C(NCC1CCCC(F)(F)C1)c1cc(CCO)n2cccc(Cl)c12` (centres unmarked) [Compound 45, 8-chloro-N-((3,3-difluorocyclohexyl)methyl)-3-(2-hydroxyethyl)indolizine-1-carboxamide]: the IC50 lay within 10 to 100 nM at P2X7 [1] and 101 to 500 nM at P2X7 [2].

With `O=C(NCC1(O)CCC(F)(F)CC1)c1cc(CC2CCOC2)n2cccc(Cl)c12` (centres unmarked) [Compound 47, 8-chloro-N-((4,4-difluoro-1-hydroxycyclohexyl)methyl)-3-((tetrahydrofuran-3-yl)methyl)indolizine-1-carboxamide], the IC50 at P2X7 [1] and on P2X7 [2] was 10 to 100 nM throughout.

As to `O=C(NCC1(O)CCC(F)(F)CC1)c1cc(C2CCCO2)n2cccc(Cl)c12` (centres unmarked) [Compound 48, 8-Chloro-3-(tetrahydro-furan-2-yl)-indolizine-1-carboxylic Acid (4,4-difluoro-1-hydroxycyclohexyl methyl)-amide], the IC50 on P2X7 [1] and on P2X7 [2] was 10 to 100 nM throughout.

For the compound `O=C(NCC1CCC(F)(F)CC1)c1cc(CCO)n2cccc(Cl)c12` [Compound 51, 8-chloro-N-((4,4-difluorocyclohexyl)methyl)-3-(2-hydroxyethyl)indolizine-1-carboxamide], the IC50 on P2X7 [1] fell in the range of 10 to 100 nM; at P2X7 [2], 101 to 500 nM.

Regarding `COCCc1cc(C(=O)NCC2(O)CCC(F)(F)CC2)c2c(Cl)cccn12` [Compound 53, 8-chloro-N-((4,4-difluoro-1-hydroxycyclohexyl)methyl)-3-(2-methoxyethyl)indolizine-1-carboxamide], the IC50 on P2X7 [1] and at P2X7 [2] was 10 to 100 nM each time.

As to `O=C(NCC1(O)CCCC(F)(F)C1)c1cc(C2CCCO2)n2cccc(Cl)c12` (centres unmarked) [Compound 54, 8-Chloro-3-(tetrahydro-furan-2-yl)-indolizine-1-carboxylic Acid (3,3-difluoro-1-hydroxycyclohexyl methyl)-amide], the results for the IC50 on P2X7 [1] and on P2X7 [2] were less than 10 nM and 10 to 100 nM, respectively.

For `COCCc1cc(C(=O)NCC2(O)CCCC(F)(F)C2)c2c(C)cccn12` (centres unmarked) [Compound 57, 3-(2-Methoxy-ethyl)-8-methyl-indolizine-1-carboxylic Acid (3,3-difluoro-1-hydroxy-cyclohexylmethyl)-amide], the IC50 at P2X7 [1] and at P2X7 [2] was 101 to 500 nM in each case.
